Measurements taken from patent US20190119193A1, “COMPOSITION FOR REGULATING PLANT GROWTH, METHOD FOR TREATING PLANTS THEREWITH, AND ACTIVE INGREDIENT THEREOF” (Ivan Aleksandrovich Starikov, priority 2016, published 2019).

What was measured:
[1] = Dilution of DMSO solution (10 g/L) in water; type: physicochemical; conditions: solution in DMSO (10 g/L) diluted in large quantities of water
[2] = tested on: spring wheat of “Zlata” variety; assay: Field tests of GS-200 on wheat; type: in vivo
Procedure: After that GS-200 were dissolved in dimethyl sulfoxide to give solution of 10 g/L concentration, then water was added to give aqueous solutions of GS-200 with concentrations of 5.3·10^−7 M, 1.7·10^−8 M, 5.3·10^−9 M, 1.7·10^−10 M, 5.3·10^−11 M, 1.7·10^−12 M.
The field tests of the obtained aqueous solutions of GS-200 on spring wheat of “Zlata” variety were carried out. The tests were carried out in agroclimatic zone I, on the experimental field of the Moscow RIA «Nemchinovka» Agricultural technology center's Laboratory for the Development of Grain Protection Systems (Moscow region, Odintsovo district, Novoivanovskoe, 2017), according to the method adopted for registration tests of plant growth regulators: Methodology guidelines for approval tests of new fertilizers, bioregulators and plant regulators. Moscow-Vladimir, 2009, p. 104; State procedure of strain tests for agricultural crop. Corny, leguminous and forage cultures. Edition 1, M., 1985—p. 269, Edition 2, M., 1989—p. 194; State procedure of strain tests for agricultural crop. Corny, leguminous and forage cultures. Edition 1, M., 1985—p. 269, Edition 2, M., 1989—p. 194; All-Union Standard 10-108-87; All-Union State Standard 26212-91; All-Union State Standard 26207-91; All-Union Standard 10-108-87.
The soil of the testing ground is sod-podzolic on the covering silt. The depth of the topsoil is 27-30 centimeters, humus content is up to 2.2%, pHsalt is about 5.8-5.9, labile phosphorus index is 135-145 mg/kg, and exchange potassium index is 100-110 mg/kg.
Tests were conducted from Apr. 24 to Aug. 17, 2017. The weather conditions of the whole growing period were highly unfavorable (normal amount of precipitations was exceeded more than one and a half times; the temperature was much lower than long-term annual average), which is a strong stress factor.
Control test—without treatment with growth regulators.
Area of experimental plots—50 m^2, accounting area—40 m^2. Fourfold replication of the experiments.
Preceding crop was winter wheat. Immediately after the autumn harvesting of winter crops the area was treated with disc harrow to a depth of 10-12 cm. Then, fall plowing to a depth of 18-21 cm by a reverse plow and harrowing were carried out.
Before seeding the test crop, the soil was fertilized with nitrogen-phosphorus-potassium fertilizer in a dose of N64P64K64. Date of sowing: Apr. 24, 2017. Seeding rate: 5.5 million of germinated grains per 1 hectare.
Before seeding, all the seeds were treated with “Vincite Forte” fungicide with a consumption rate of 0.8 L per ton of seeds, as well as the aqueous solution of GS-200 selected for the experiment with a consumption rate of 10 L per ton of seeds (this aqueous solution was directly used as a liquid for treatment) or without a growth regulator, depending on the experiment. The following concentrations of the GS-200 solutions were used for treatment: 5.3·10^−7 M, 5.3·10^−9 M, […].
At the tillering phase (May 29-30) the crops were sprayed against weeds with “Linthur” herbicide at a dose of 175.0 g/ha. In the beginning of booting stage (June 12-13), in order to prevent blasts and leaf diseases, crops were sprayed with tank mixture of insecticide “BoreiNeo” in a dose 0.5 L/ha and fungicide “Alto Super” in a dose 0.5 L/ha. In the beginning of ear stage (June 28) crops on the testing ground were sprayed with tank mixture of fungicide “Rakurs” (against Septoria blight and Fusarium blight) in a dose 0.5 L/ha and a solution of GS-200 in a dose 300 L/ha. Spraying with aqueous solutions of GS-200 was carried out for all variants, where GS-200 were used for seed treatment. The concentration of the spraying solution was one-thirtieth of the concentration of the solution previously used for treatment of seeds: 1.7·10^−8 M, 1.7·10^−10 M and 1.7·10^−12 M respectively.
Harvesting of experimental plots was carried out on August 17, before harvesting test sheaves of 0.25 m^2 of each variant of the experiment were selected for structural analysis. […]

[3] = seeds treated 5.3 · 10^−7 M, sprayed 1.7·10^−8 M
[4] = seeds treated 5.3 · 10^−9 M, sprayed 1.7·10^−10 M
[5] = seeds treated 5.3 · 10^−11 M, sprayed 1.7·10^−12 M

SMILES: CCOC(=O)C(=O)CC(=O)N(C)C [GS-200, Ethyl 4-(dimethylamino)-2,4-dioxobutanoat]
- Appearance on dilution in water [1]: clear solution
- 1000 grains weight [2, 3]: 45.4 g
- Gluten [2, 3]: 27.5 % dry basis
- Main head length [2, 3]: 8.24 cm
- Number of seeds from main head [2, 3]: 38.84 pcs
- Number of spikelets in main head [2, 3]: 15.88 pcs
- Number of stems [2, 3]: 450 pcs/m^2
- Number of yielding stems [2, 3]: 398 pcs/m^2
- Plant height [2, 3]: 121.1 cm
- Productive tilling capacity [2, 3]: 1.46
- Protein (N 5.7) [2, 3]: 12.21 % dry basis
- Starch [2, 3]: 58.40 % dry basis
- Total tilling capacity [2, 3]: 1.65
- Weight of grains from main head [2, 3]: 1.89 g
- Yield [2, 3]: 5.34 t/ha
- Yield, % (comparing to control) [2, 3]: 124.8%
- 1000 grains weight [2, 4]: 47.2 g
- Gluten [2, 4]: 26.0 % dry basis
- Main head length [2, 4]: 8.20 cm
- Number of seeds from main head [2, 4]: 37.40 pcs
- Number of spikelets in main head [2, 4]: 15.56 pcs
- Number of stems [2, 4]: 462 pcs/m^2
- Number of yielding stems [2, 4]: 388 pcs/m^2
- Plant height [2, 4]: 118.5 cm
- Productive tilling capacity [2, 4]: 1.53
- Protein (N 5.7) [2, 4]: 11.56 % dry basis
- Starch [2, 4]: 58.66 % dry basis
- Total tilling capacity [2, 4]: 1.82
- Weight of grains from main head [2, 4]: 1.90 g
- Yield [2, 4]: 5.37 t/ha
- Yield, % (comparing to control) [2, 4]: 125.5%
- 1000 grains weight [2, 5]: 44.1 g
- Gluten [2, 5]: 26.6 % dry basis
- Main head length [2, 5]: 7.56 cm
- Number of seeds from main head [2, 5]: 34.28 pcs
- Number of spikelets in main head [2, 5]: 15.56 pcs
- Number of stems [2, 5]: 398 pcs/m^2
- Number of yielding stems [2, 5]: 360 pcs/m^2
- Plant height [2, 5]: 118.7 cm
- Productive tilling capacity [2, 5]: 1.71
- Protein (N 5.7) [2, 5]: 11.82 % dry basis
- Starch [2, 5]: 59.05 % dry basis
- Total tilling capacity [2, 5]: 1.90
- Weight of grains from main head [2, 5]: 1.60 g
- Yield [2, 5]: 4.65 t/ha
- Yield, % (comparing to control) [2, 5]: 108.6%

SMILES: CCOC(=O)C(=O)CC(C)=O [GS-300, Ethyl 2,4-dioxovalerate]
- Appearance on dilution in water [1]: clear solution

SMILES: CCOC(=O)CC(=O)C(=O)OCC [GS-195, Diethyl ester of oxaloacetic acid]
- Appearance on dilution in water [1]: clear solution

SMILES: CCOC(=O)C(=O)CC(=O)c1ccccc1 [GS-310, Ethyl 2,4-dioxo-4-phenylbutanoate]
- Appearance on dilution in water [1]: clear solution

SMILES: CCOC(=O)CC(=O)C(=O)O [GS-197, 4-Ethoxy-2,4-dioxobutanoic acid]
- Appearance on dilution in water [1]: clear solution

SMILES: CCOC(=O)C(=O)C(C(=O)OCC)c1ccccc1 (centres unmarked) [GS-199, Diethyl 2-oxo-3-phenylbutanedioate]
- Appearance on dilution in water [1]: clear solution

SMILES: COC(=O)C1CNC(=O)C1=O (centres unmarked) [GS-500, Methyl 4,5-dioxopyrrolidine-3-carboxylate]
- Appearance on dilution in water [1]: clear solution

SMILES: CCOC(=O)C(=O)CC(=O)c1c[nH]c2ccccc12 [GS-312, Ethyl 4-(1H-indol-3-yl)-2,4-dioxobutanoate]
- Appearance on dilution in water [1]: bright yellow fluorescent suspension

SMILES: CN(C)C(=O)C(=O)CC(=O)N(C)CCO [GS-214, N^4-(2-hydroxyethyl)-N^1,N^1,N^4-trimethyl-2-oxobutanediamide]
- Appearance on dilution in water [1]: clear solution

SMILES: COC(=O)C(=O)C(Cl)C(=O)OC (centres unmarked) [GS-172, Dimethyl 2-chloro-3-oxobutanedioate]
- Appearance on dilution in water [1]: clear solution

SMILES: COC(=O)C(=O)C(C)C(=O)OC (centres unmarked) [GS-171, Dimethyl 2-methyl-3-oxobutanedioate]
- Appearance on dilution in water [1]: clear solution

SMILES: CCN(CC)C(=O)CC(=O)C(N)=O [GS-203, N^4,N^4-Diethyl-2-oxobutanediamide]
- Appearance on dilution in water [1]: clear solution

SMILES: CCOC(=O)C(=O)CC(=O)N(CC)CC [GS-202, Ethyl 4-(diethylamino)-2,4-dioxobutanoat]
- Appearance on dilution in water [1]: clear solution

SMILES: CCOC(=O)C(=O)C(Sc1ccc(C)cc1)C(=O)OCC (centres unmarked) [GS-184, Diethyl 2-[(4-Methylphenyl)Sulfanyl]-3-Oxobutanedioate]
- Appearance on dilution in water [1]: clear solution
